Laboratory results published in the NIST ThermoML archive (doi:10.1016/j.jct.2014.07.018).

Assay: molar heat capacity at constant pressure
Conditions: 101.33 kPa, Vacuum adiabatic calorimetry

CCCCn1cc[n+](C)c1.[I-] [1-butyl-3-methylimidazolium iodide]
molar heat capacity at constant pressure [J/K/mol]
Conditions | Crystal | Glass
4.858 K | 0.768 | –
5 K | 0.845 | 1.57
5.042 K | – | 1.601
5.112 K | 0.909 | –
5.32 K | – | 1.862
5.371 K | 1.07 | –
5.604 K | – | 2.149
5.638 K | 1.249 | –
5.895 K | – | 2.463
5.91 K | 1.452 | –
6.217 K | 1.701 | –
6.222 K | – | 2.842
6.56 K | 2.006 | –
6.586 K | – | 3.292
6.91 K | 2.343 | –
6.955 K | – | 3.776
7.265 K | 2.714 | –
7.328 K | – | 4.295
7.496 K | – | 4.532
7.625 K | 3.114 | –
7.705 K | – | 4.838
7.884 K | – | 5.11
7.99 K | 3.553 | –
8.267 K | – | 5.703
8.357 K | 4.021 | –
8.654 K | – | 6.323
8.728 K | 4.513 | –
9.042 K | – | 6.967
9.104 K | 5.04 | –
9.433 K | – | 7.63
9.483 K | 5.597 | –
9.825 K | – | 8.316
9.868 K | 6.177 | –
10 K | 6.39 | 8.62
10.33 K | – | 9.205
10.36 K | 6.957 | –
10.94 K | – | 10.33
10.95 K | 7.92 | –
11.56 K | 8.937 | 11.49
12.16 K | 9.99 | –
12.18 K | – | 12.66
12.77 K | 11.08 | –
12.8 K | – | 13.88
13.38 K | 12.19 | –
13.42 K | – | 15.11
14 K | 13.34 | –
14.05 K | – | 16.37
14.63 K | 14.54 | –
14.69 K | – | 17.68
15 K | 15.25 | 18.31
15.25 K | 15.73 | –
15.47 K | – | 19.26
15.99 K | 17.18 | –
16.42 K | – | 21.23
16.84 K | 18.83 | –
17.37 K | – | 23.19
17.7 K | 20.48 | –
18.32 K | – | 25.15
18.56 K | 22.1 | –
19.27 K | – | 27.09
19.42 K | 23.73 | –
20 K | 24.83 | 28.59
20.22 K | – | 29.03
20.29 K | 25.36 | –
21.48 K | – | 31.59
21.5 K | 27.65 | –
23.05 K | – | 34.73
23.06 K | 30.6 | –
24.62 K | 33.53 | –
24.63 K | – | 37.87
25 K | 34.2 | 38.6
26.19 K | 36.35 | –
26.21 K | – | 40.93
27.59 K | 38.83 | –
27.79 K | – | 43.88
29.09 K | 41.41 | –
29.96 K | – | 47.88
30 K | 42.93 | 47.93
30.68 K | 44.04 | –
32.35 K | – | 52.05
32.43 K | 46.84 | –
34.29 K | – | 55.25
34.33 K | 49.79 | –
35 K | 50.8 | 56.37
36.21 K | – | 58.25
36.25 K | 52.67 | –
38.13 K | – | 61.21
38.16 K | 55.41 | –
40 K | 58.01 | 64
40.04 K | – | 64.03
40.07 K | 58.07 | –
42.06 K | – | 66.96
42.08 K | 60.84 | –
44.18 K | – | 69.94
44.19 K | 63.71 | –
45 K | 64.77 | 71.05
46.3 K | 66.48 | 72.87
48.41 K | 69.11 | –
48.42 K | – | 75.66
50 K | 71.06 | 77.66
50.52 K | 71.72 | –
50.54 K | – | 78.37
52.64 K | 74.22 | –
52.66 K | – | 80.96
54.76 K | 76.59 | –
54.78 K | – | 83.48
56.88 K | 78.93 | –
56.91 K | – | 85.88
59.01 K | 81.2 | –
59.04 K | – | 88.27
60 K | 82.26 | 89.36
61.14 K | 83.4 | –
61.17 K | – | 90.59
63.27 K | 85.56 | –
63.31 K | – | 92.93
65.4 K | 87.69 | –
65.45 K | – | 95.14
67.54 K | 89.76 | –
67.59 K | – | 97.4
69.67 K | 91.79 | –
69.73 K | – | 99.56
70 K | 92.11 | 99.8
71.91 K | 93.89 | –
71.97 K | – | 101.8
74.26 K | 96.02 | –
74.32 K | – | 104.1
76.61 K | 98.12 | –
76.67 K | – | 106.3
78.96 K | 100.2 | –
